A melting point compilation (Tetko et al.; mined from patent text by program, amines drawn as free bases though some values may be those of a salt)

Compound | melting point [°C]
CC(C)(C)n1ncc(Cl)c(NCCN2CCN(c3cccc4c3OCCO4)CC2)c1=O | 177 to 178
CC(Cc1ccc(OCCCCCCCCCCCO)cc1)NCC(O)c1cccc(C(F)(F)F)c1 (stereo not given) | 45 to 50
CN(C(=O)OC(C)(C)C)[C@H]1CCN(C(=O)c2ccc(-c3[nH]nc4c3C(=O)c3c(NC(=O)NN5CCOCC5)cccc3-4)s2)C1 | > 300
O=C(O)c1c(-c2ccc(Cl)c(Cl)c2)csc1N1C(=O)c2ccccc2C1=O | 198 to 199
COc1ccc(C(CN(C)C)C2(O)C=CCCC2)cc1 (stereo not given) | 128 to 130
CCCc1nc(C(C)O)c(C(=O)OCC)[nH]1 (stereo not given) | 151 to 153
COc1ccc(-c2nn(C3CCCC3)c3c(C(F)(F)F)cccc23)c(OC)c1 | 79 to 80
O=C(O)CCCc1ccc(C(=O)CCCc2ccccc2)cc1 | 111 to 112
O=C(Nc1cccc(Cl)c1)Nc1cnnc(Cl)c1 | 240 to 248
CN(C)C1CCc2oc3ccc(NC(=O)c4ccc(F)cc4)cc3c2C1 (stereo not given) | 137 to 138
CCOC(=O)c1cc2n(C)c3ccc(F)cc3c(=O)n2n1 | 288 to 290
COC(C)Cn1c(C)nc2c(N)nc3ccccc3c21 (stereo not given) | 196 to 197
CS(=O)(=O)N(Cc1ccccc1)c1ccc(C2CO2)cc1 (stereo not given) | 89 to 92
O=c1[nH]c2ccccc2c(=O)c2ccccc12 | 245 to 248
O=C(O)Cc1ccc2onc(-c3ccc(Cl)cc3)c2c1 | 189
CC=CCn1c(C)c(C)c2cnnc(OCc3ccccc3)c21 | 81 to 84
Nc1cc(C(=O)O)c(N)c2c1C(=O)c1ccccc1C2=O | 352
CCn1cc(Cc2ccc(C(=O)OC)cc2OC)c2cc(NC(=O)CC3CCCC3)ccc21 | 144 to 146
CNC1CCc2[nH]c3ccc(OCc4ccccc4)cc3c2C1 (stereo not given) | 120 to 121
O=C(O)c1ccc(OCC2CN(C(=O)c3ccccc3)C(=O)O2)cc1 (stereo not given) | 219 to 221
Cc1cccc(C)c1-n1cc(C#N)c(=O)[nH]c1=O | 267 to 269
Cc1ccc(-c2nc3ccccc3o2)cc1 | 113 to 114

Further lines, results first:

melting point [°C] | Compound
110 to 111 | CCOC(OCC)c1cc(Nc2ccc(OC)cc2)c(F)c(-c2ccc(Cl)cc2)n1
154 to 155 | Cc1nn(-c2ccc(C(F)(F)F)cn2)cc1COc1cc(CCC(=O)O)n(C)n1
248 to 249 | N#Cc1ccc(CCC(=O)c2c(O)c3cccnc3n(-c3ccccc3)c2=O)cc1
249 to 252 | Cc1ccccc1Cc1n[nH]c2c1c(=O)n(-c1cccc(C(F)(F)F)c1)c1ncccc21
125 to 128 | CCOC(CCn1c(-c2ccc(F)cc2)c(-c2ccccc2)c(C(=O)Nc2ccccc2)c1C(C)C)OCC
162 to 163 | CC(C)n1nc(-c2cc(C(=O)NCCN3CCOCC3)cnc2-c2ccccc2)ccc1=O
102 to 105 | CN(C)CCCOc1cccc(CC(=O)c2cccc(OCCCN(C)C)c2)c1
198 | CCN(CC)CCCCC1CCN(CC(=O)N2c3ccccc3NC(=O)c3c2ccn3C)CC1
95 to 96 | C#Cc1ccc(NC=C(C(=O)NCCC)C(=O)c2ccccc2Cl)cc1
195 to 196 | CCOC(=O)c1c(OCC)nsc1NC(=O)NC
155 | NC(=S)NC1Cc2ccccc2C1
225 to 227 | C#Cc1cccc(Nc2ncnc3[nH]cc(-c4ccc(Cl)cc4)c23)c1
161 to 162 | CCOC(=O)c1c(NC)n[nH]c1C
202 to 204 | CCCOCCOc1ccc(-c2ccc3c(c2)C=C(C(=O)O)CCCN3CCC)cc1
66 to 68 | CNC(=O)NC(Cc1c[nH]c2ccccc12)C(=O)OCc1cc(C)cc(C)c1 (stereo not given)
168 to 169 | NC(=O)c1ncn(C2OC(CO)C(O)C2O)c1C#Cc1ccccc1 (stereo not given)
89 to 90 | O=C1CCCN1C(=O)Oc1ccc(F)cc1
145 to 147 | CC(C)(C)OC(=O)N1CCNC(=O)C1Cc1ccc(OCc2ccccc2)cc1 (stereo not given)
